Experimental data published in US11339128B2 (Firmenich Incorporated, priority 2014, dated 2022).
Where a name gives a salt, the structure may show the parent alone.

Biological target: T1, T1R2/T1R3 taste receptor (Homo sapiens, UniProt Q7RTX0+Q8TE23)
T1 sequence (Q8TE23 20-839): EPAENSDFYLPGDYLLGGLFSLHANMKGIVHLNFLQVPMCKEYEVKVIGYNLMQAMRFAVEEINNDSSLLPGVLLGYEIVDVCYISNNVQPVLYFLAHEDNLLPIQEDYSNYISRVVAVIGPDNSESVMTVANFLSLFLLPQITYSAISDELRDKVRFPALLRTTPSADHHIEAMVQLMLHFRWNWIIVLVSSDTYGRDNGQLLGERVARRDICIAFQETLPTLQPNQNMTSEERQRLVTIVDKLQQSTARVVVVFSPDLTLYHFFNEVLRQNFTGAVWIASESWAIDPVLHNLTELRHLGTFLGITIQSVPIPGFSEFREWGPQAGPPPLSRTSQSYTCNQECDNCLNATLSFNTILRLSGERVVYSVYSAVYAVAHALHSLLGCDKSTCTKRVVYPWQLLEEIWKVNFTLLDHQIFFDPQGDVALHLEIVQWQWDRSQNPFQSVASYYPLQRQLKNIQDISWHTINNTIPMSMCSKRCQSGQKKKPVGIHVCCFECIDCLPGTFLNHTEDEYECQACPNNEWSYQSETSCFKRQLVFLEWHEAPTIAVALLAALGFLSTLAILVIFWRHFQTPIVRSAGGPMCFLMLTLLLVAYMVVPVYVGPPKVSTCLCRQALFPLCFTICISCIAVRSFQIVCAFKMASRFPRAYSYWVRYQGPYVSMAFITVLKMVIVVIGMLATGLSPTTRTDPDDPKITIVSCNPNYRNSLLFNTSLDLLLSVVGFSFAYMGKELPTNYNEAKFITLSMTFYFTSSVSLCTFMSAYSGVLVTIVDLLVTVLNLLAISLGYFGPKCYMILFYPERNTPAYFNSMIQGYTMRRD
T1 sequence (Q7RTX0 21-852): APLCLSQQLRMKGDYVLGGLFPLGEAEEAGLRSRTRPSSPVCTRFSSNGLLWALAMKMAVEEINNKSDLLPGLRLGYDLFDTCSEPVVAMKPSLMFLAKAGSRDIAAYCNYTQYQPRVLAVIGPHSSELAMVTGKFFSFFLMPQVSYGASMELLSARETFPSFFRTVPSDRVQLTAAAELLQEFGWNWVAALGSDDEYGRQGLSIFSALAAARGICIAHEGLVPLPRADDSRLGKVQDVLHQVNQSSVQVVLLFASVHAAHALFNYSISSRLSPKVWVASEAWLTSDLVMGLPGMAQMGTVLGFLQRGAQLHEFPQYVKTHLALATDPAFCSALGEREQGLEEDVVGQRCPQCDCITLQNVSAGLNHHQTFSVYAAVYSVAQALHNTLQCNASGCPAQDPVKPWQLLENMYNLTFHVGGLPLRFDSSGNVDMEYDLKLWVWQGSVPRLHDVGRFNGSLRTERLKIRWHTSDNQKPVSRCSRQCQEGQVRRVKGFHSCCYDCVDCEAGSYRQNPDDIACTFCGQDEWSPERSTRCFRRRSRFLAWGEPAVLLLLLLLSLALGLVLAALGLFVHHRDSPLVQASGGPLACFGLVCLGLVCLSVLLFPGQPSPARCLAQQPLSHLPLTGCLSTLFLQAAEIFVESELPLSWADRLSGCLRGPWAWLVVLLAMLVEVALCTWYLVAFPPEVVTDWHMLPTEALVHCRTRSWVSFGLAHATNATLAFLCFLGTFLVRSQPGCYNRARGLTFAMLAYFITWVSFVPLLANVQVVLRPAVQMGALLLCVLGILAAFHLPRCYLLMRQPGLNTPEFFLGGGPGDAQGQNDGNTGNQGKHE
Test: Receptor-based assay: sweetener EC50 enhancement ratio with and without test compound
Assay type: cell-based
Settings: for Sucrose Enhancement EC50 Ratio: sweetener sucrose; for Fructose Enhancement EC50 Ratio: sweetener fructose; for Sucralose Enhancement EC50 Ratio: sweetener sucralose
Summary of the method: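 Sweetener (sucrose, sucralose, fructose) EC50 measured alone and with 1, 3, 10 or 50 μM test compound. Enhancement ratio = EC50 without/with compound; A = >1 to <10, B = 10–20, C = >20.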

SMILES	Sucrose Enhancement EC50 Ratio (10 μM test compound)	Sucralose Enhancement EC50 Ratio (10 μM test compound)	Sucrose Enhancement EC50 Ratio (1 μM test compound)	Sucrose Enhancement EC50 Ratio (3 μM test compound)	Fructose Enhancement EC50 Ratio (10 μM test compound)	Sucralose Enhancement EC50 Ratio (3 μM test compound)	Fructose Enhancement EC50 Ratio (50 μM test compound)
Cc1nc2cccc(O[C@H]3CC[C@H](NC(=O)CN4CCOCC4)CC3)c2c(N)c1C(=O)O.Cl [Compound 600, 4-Amino-2-methyl-5-((trans-4-(2-morpholinoacetamido)cyclohexyl)oxy) quinolone-3-carboxylic acid (HCl)]	–	–	B (an enhancement ratio from 10 to 20)	C (an enhancement ratio greater than 20)	–	–	–
COCC(=O)NC[C@H]1CC[C@H](Oc2cccc3nc(C)c(C(=O)O)c(N)c23)CC1 [Compound 601]	C (an enhancement ratio greater than 20)	–	A (an enhancement ratio of greater than 1 and less than 10)	C (an enhancement ratio greater than 20)	A (an enhancement ratio of greater than 1 and less than 10)	–	–
Cc1nc2cccc(O[C@H]3CC[C@H](CN)CC3)c2c(N)c1C(=O)O.Cl [Compound 602]	C (an enhancement ratio greater than 20)	–	A (an enhancement ratio of greater than 1 and less than 10)	A (an enhancement ratio of greater than 1 and less than 10)	A (an enhancement ratio of greater than 1 and less than 10)	–	–
CCOCC(=O)NC[C@H]1CC[C@H](Oc2cccc3nc(C)c(C(=O)O)c(N)c23)CC1 [Compound 603]	C (an enhancement ratio greater than 20)	C (an enhancement ratio greater than 20)	A (an enhancement ratio of greater than 1 and less than 10)	C (an enhancement ratio greater than 20)	–	–	–
Cc1nc2cccc(O[C@H]3CC[C@H](Nc4ccccn4)CC3)c2c(N)c1C(=O)O [Compound 701, 4-Amino-2-methyl-5-((trans-4-(pyridin-2-ylamino)cyclohexyl)oxy) quinoline-3-carboxylic acid]	B (an enhancement ratio from 10 to 20)	C (an enhancement ratio greater than 20)	A (an enhancement ratio of greater than 1 and less than 10)	B (an enhancement ratio from 10 to 20)	–	C (an enhancement ratio greater than 20)	–
Cc1cc(C)nc(N[C@H]2CC[C@H](Oc3cccc4nc(C)c(C(=O)O)c(N)c34)CC2)n1 [Compound 702, 4-Amino-5-((trans-4-((4,6-dimethylpyrimidin-2-yl)amino)cyclohexyl)oxy)-2-methylquinoline-3-carboxylic (HCl)]	A (an enhancement ratio of greater than 1 and less than 10)	B (an enhancement ratio from 10 to 20)	A (an enhancement ratio of greater than 1 and less than 10)	A (an enhancement ratio of greater than 1 and less than 10)	–	A (an enhancement ratio of greater than 1 and less than 10)	–
CCCc1ccnc(N[C@H]2CC[C@H](Oc3cccc4nc(C)c(C(=O)O)c(N)c34)CC2)n1 [Compound 709]	A (an enhancement ratio of greater than 1 and less than 10)	A (an enhancement ratio of greater than 1 and less than 10)	A (an enhancement ratio of greater than 1 and less than 10)	A (an enhancement ratio of greater than 1 and less than 10)	–	A (an enhancement ratio of greater than 1 and less than 10)	–

The next lines start with results.

Sucrose Enhancement EC50 Ratio (10 μM test compound)	Sucralose Enhancement EC50 Ratio (10 μM test compound)	SMILES	Sucrose Enhancement EC50 Ratio (1 μM test compound)	Sucrose Enhancement EC50 Ratio (3 μM test compound)	Fructose Enhancement EC50 Ratio (10 μM test compound)	Sucralose Enhancement EC50 Ratio (3 μM test compound)	Fructose Enhancement EC50 Ratio (50 μM test compound)
B (an enhancement ratio from 10 to 20)	B (an enhancement ratio from 10 to 20)	COc1cnc(N[C@H]2CC[C@H](Oc3cccc4nc(C)c(C(=O)O)c(N)c34)CC2)nc1 [Compound 703]	A (an enhancement ratio of greater than 1 and less than 10)	A (an enhancement ratio of greater than 1 and less than 10)	A (an enhancement ratio of greater than 1 and less than 10)	B (an enhancement ratio from 10 to 20)	–
B (an enhancement ratio from 10 to 20)	B (an enhancement ratio from 10 to 20)	Cc1nc2cccc(O[C@H]3CC[C@H](Nc4ncc(F)cn4)CC3)c2c(N)c1C(=O)O [Compound 704]	A (an enhancement ratio of greater than 1 and less than 10)	A (an enhancement ratio of greater than 1 and less than 10)	A (an enhancement ratio of greater than 1 and less than 10)	B (an enhancement ratio from 10 to 20)	A (an enhancement ratio of greater than 1 and less than 10)
B (an enhancement ratio from 10 to 20)	B (an enhancement ratio from 10 to 20)	Cc1cnc(N[C@H]2CC[C@H](Oc3cccc4nc(C)c(C(=O)O)c(N)c34)CC2)nc1 [Compound 705]	A (an enhancement ratio of greater than 1 and less than 10)	B (an enhancement ratio from 10 to 20)	A (an enhancement ratio of greater than 1 and less than 10)	A (an enhancement ratio of greater than 1 and less than 10)	–
B (an enhancement ratio from 10 to 20)	B (an enhancement ratio from 10 to 20)	CCCc1cnc(N[C@H]2CC[C@H](Oc3cccc4nc(C)c(C(=O)O)c(N)c34)CC2)nc1 [Compound 706]	A (an enhancement ratio of greater than 1 and less than 10)	A (an enhancement ratio of greater than 1 and less than 10)	A (an enhancement ratio of greater than 1 and less than 10)	A (an enhancement ratio of greater than 1 and less than 10)	A (an enhancement ratio of greater than 1 and less than 10)
B (an enhancement ratio from 10 to 20)	B (an enhancement ratio from 10 to 20)	COc1ccnc(N[C@H]2CC[C@H](Oc3cccc4nc(C)c(C(=O)O)c(N)c34)CC2)n1 [Compound 707]	A (an enhancement ratio of greater than 1 and less than 10)	A (an enhancement ratio of greater than 1 and less than 10)	A (an enhancement ratio of greater than 1 and less than 10)	A (an enhancement ratio of greater than 1 and less than 10)	A (an enhancement ratio of greater than 1 and less than 10)
C (an enhancement ratio greater than 20)	C (an enhancement ratio greater than 20)	Cc1ccnc(N[C@H]2CC[C@H](Oc3cccc4nc(C)c(C(=O)O)c(N)c34)CC2)n1 [Compound 708]	A (an enhancement ratio of greater than 1 and less than 10)	C (an enhancement ratio greater than 20)	A (an enhancement ratio of greater than 1 and less than 10)	C (an enhancement ratio greater than 20)	–
